Laboratory results published in patent publication US10787447B2, “Pharmaceutical compounds” (Heptares Therapeutics Limited, priority 2018, dated 2020).
pEC50: −log10 of the molar value. Like-named read-outs stand apart in the source and are kept apart here.

Experiments:
[1] = target: T1, human muscarinic M1 receptor (Homo sapiens, UniProt P11229); test: Alphascreen Surefire phospho-ERK1/2 functional assay, M1; format: cell-based; conditions: for % Emax cf. ACh, M1 / EC50: CHO cells stably expressing human M1; for % Emax cf. ACh, M1 / Emax: Emax relative to ACh; for EC50 / pEC50: phospho-ERK1/2; for EC50: read-out: pEC50 M1 (converted); for pEC50: pEC50 M1, CHO cells stably expressing human M1; for Emax: CHO, read-out: % Emax cf. ACh, M1, CHO cells stably expressing human M1
T1 sequence (P11229 1-460): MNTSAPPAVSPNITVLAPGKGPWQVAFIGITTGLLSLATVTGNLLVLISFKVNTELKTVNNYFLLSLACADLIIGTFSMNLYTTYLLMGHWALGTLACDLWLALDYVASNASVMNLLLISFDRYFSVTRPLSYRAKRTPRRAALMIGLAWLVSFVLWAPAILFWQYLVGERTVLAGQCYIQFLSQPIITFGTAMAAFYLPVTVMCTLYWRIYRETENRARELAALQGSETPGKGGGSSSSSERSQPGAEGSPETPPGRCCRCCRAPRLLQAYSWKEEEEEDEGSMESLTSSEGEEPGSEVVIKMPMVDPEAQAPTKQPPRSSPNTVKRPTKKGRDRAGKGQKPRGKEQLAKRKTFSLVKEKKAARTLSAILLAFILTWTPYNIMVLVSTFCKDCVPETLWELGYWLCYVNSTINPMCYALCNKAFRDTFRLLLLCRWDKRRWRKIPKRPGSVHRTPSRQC
Protocol: (§1) Functional assays were performed using the Alphascreen Surefire phospho-ERK1/2 assay (Crouch & Osmond, Comb. Chem. High Throughput Screen, 2008). ERK1/2 phosphorylation is a downstream consequence of both Gq/11 and Gi/o protein coupled receptor activation, making it highly suitable for the assessment of M1, M3 (Gq/11 coupled) and M2, M4 receptors (Gi/o coupled), rather than using different assay formats for different receptor subtypes. CHO cells stably expressing the human muscarinic M1, M2, M3 or M4 receptor were plated (25K/well) onto 96-well tissue culture plates in MEM-alpha+10% dialysed FBS. Once adhered, cells were serum-starved overnight. Agonist stimulation was performed by the addition of 5 μL agonist to the cells for 5 min (37° C.). Media was removed and 50 μL of lysis buffer added. After 15 min, a 4 μL sample was transferred to 384-well plate and 7 μL of detection mixture added.
For the vast majority of examples at least two diastereomers exist and these have been separated, unless otherwise stated, using the techniques of reversed phase HPLC, chiral HPLC or chiral SFC. Isomer assignment (Isomer 1, Isomer 2, etc.) is based on the retention time of the compound using the separation technique that was performed in the final purification step. By implication, this could be reversed phase HPLC, chiral HPLC or chiral SFC retention time, and this will vary from compound to compound.

[2] = target: T2, human muscarinic M4 receptor (Homo sapiens, UniProt P08173); test: Alphascreen Surefire phospho-ERK1/2 functional assay, M4; format: cell-based; conditions: for % Emax cf. ACh, M4 / EC50: CHO cells stably expressing human M4; for % Emax cf. ACh, M4 / Emax: Emax relative to ACh; for EC50 / pEC50: phospho-ERK1/2; for EC50: read-out: pEC50 M4 (converted); for pEC50: pEC50 M4, CHO cells stably expressing human M4; for Emax: CHO, read-out: % Emax cf. ACh, M4, CHO cells stably expressing human M4
T2 sequence (P08173 1-479): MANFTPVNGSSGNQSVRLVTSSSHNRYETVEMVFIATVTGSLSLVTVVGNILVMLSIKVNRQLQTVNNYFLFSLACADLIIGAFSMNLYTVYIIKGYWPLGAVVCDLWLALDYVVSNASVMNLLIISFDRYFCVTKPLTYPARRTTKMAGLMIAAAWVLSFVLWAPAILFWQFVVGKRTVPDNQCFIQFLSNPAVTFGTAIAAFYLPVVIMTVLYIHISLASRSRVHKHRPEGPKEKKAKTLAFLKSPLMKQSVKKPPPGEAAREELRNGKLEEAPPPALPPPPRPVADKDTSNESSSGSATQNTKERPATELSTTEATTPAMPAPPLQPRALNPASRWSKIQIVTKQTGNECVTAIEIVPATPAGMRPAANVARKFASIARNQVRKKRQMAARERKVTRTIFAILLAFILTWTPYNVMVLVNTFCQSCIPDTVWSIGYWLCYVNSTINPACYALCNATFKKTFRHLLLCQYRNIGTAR
Protocol: as §1, with “ERK1/2” for “Functional assays were performed using the Alphascreen Surefire phospho-ERK1/2 assay (Crouch & Osmond, Comb. Chem. High Throughput Screen, 2008). ERK1/2”
Isomer assignment (Isomer 1, Isomer 2, etc.) is based on the retention time of the compound using the separation technique that was performed in the final purification step. By implication, this could be reversed phase HPLC, chiral HPLC or chiral SFC retention time, and this will vary from compound to compound.

## CCOC(=O)N1C2COCC1CC(N1CCC(C(=O)NC3(C)CCC3)CC1)C2 (single isomer, unassigned) [Example 7-1 Isomer 1, Ethyl 7-{4-[(1-methylcyclobutyl)carbamoyl]piperidin-1-yl}-3-oxa-9-azabicyclo[3.3.1]nonane-9-carboxylate]
[1]; listed as 7-1 Isomer 1
  % Emax cf. ACh, M1: 91%
[1]
  EC50: 380 nM
[2]; listed as 7-1 Isomer 1
  % Emax cf. ACh, M4: 76%
[2]
  EC50: 324 nM

## CCOC(=O)N1C2COCC1CC(N1CCC3(CC1)OC(=O)NC3CC)C2 (single isomer, unassigned) [Example 5-4 Isomer 1b, Ethyl 7-(4-ethyl-2-oxo-1-oxa-3,8-diazaspiro[4.5]dec-8-yl)-3-oxa-9-azabicyclo[3.3.1]nonane-9-carboxylate]
[1]; listed as 5-4 Isomer 1b
  % Emax cf. ACh, M1: 9%
[1]
  pEC50: < 4.70
[2]; listed as 5-4 Isomer 1b
  % Emax cf. ACh, M4: 30%
[2]
  pEC50: 6.50

## CCOC(=O)N1C2COCC1CC(N1CCC(c3cccc(OC)n3)CC1)C2 (single isomer, unassigned) [Example 2-1 Isomer 1, Ethyl 7-[4-(6-methoxypyridin-2-yl)piperidin-1-yl]-3-oxa-9-azabicyclo[3.3.1]nonane-9-carboxylate]
[1]
  EC50: 251 nM
  Emax: 44%
[2]
  EC50: > 20000 nM
  Emax: 17%

## CCOC(=O)N1C2COCC1CC(N1CCC(C#N)(c3ccccn3)CC1)C2 (single isomer, unassigned) [Example 3-1 Isomer 1, Ethyl 7-[4-cyano-4-(pyridin-2-yl)piperidin-1-yl]-3-oxa-9-azabicyclo[3.3.1]nonane-9-carboxylate]
[1]
  EC50: 1380 nM
  Emax: 97%
[2]
  EC50: 129 nM
  Emax: 94%

## CCOC(=O)N1C2COCC1CC(N1CCC(c3cccc(OC)n3)CC1)C2 (single isomer, unassigned) [Example 2-1 Isomer 2, Ethyl 7-[4-(6-methoxypyridin-2-yl)piperidin-1-yl]-3-oxa-9-azabicyclo[3.3.1]nonane-9-carboxylate]
[1]
  % Emax cf. ACh, M1: 40%
  EC50: 158 nM
[2]
  % Emax cf. ACh, M4: 20%

## COC(=O)N1C2COCC1CC(N1CCC(N(Cc3ccccc3)C(C)=O)CC1)C2 (single isomer, unassigned) [Example 8-2 Isomer 2, Methyl 7-(4-(N-benzylacetamido)piperidin-1-yl)-3-oxa-9-azabicyclo[3.3.1]nonane-9-carboxylate]
[1]; listed as 8-2 Isomer 2
  % Emax cf. ACh, M1: 60%
[1]
  pEC50: 6.22
[2]; listed as 8-2 Isomer 2
  % Emax cf. ACh, M4: 27%
[2]
  pEC50: < 4.70

## COC(=O)N1C2COCC1CC(N1CCC(N(CC3(C)CCC3)C(C)=O)CC1)C2 (single isomer, unassigned) [Example 8-1 Isomer 2, Methyl 7-(4-(N-((1-methylcyclobutyl)methyl)acetamido)piperidin-1-yl)-3-oxa-9-azabicyclo[3.3.1]nonane-9-carboxylate]
[1]; listed as 8-1 Isomer 2
  % Emax cf. ACh, M1: 86%
[1]
  pEC50: 6.63
[2]; listed as 8-1 Isomer 2
  % Emax cf. ACh, M4: 47%
[2]
  pEC50: 6.24

## CCOC(=O)N1C2COCC1CC(N1CCC(C#N)(c3ccccn3)CC1)C2 (single isomer, unassigned) [Example 3-1 Isomer 2, Ethyl 7-[4-cyano-4-(pyridin-2-yl)piperidin-1-yl]-3-oxa-9-azabicyclo[3.3.1]nonane-9-carboxylate]
[1]
  % Emax cf. ACh, M1: 79%
[2]
  % Emax cf. ACh, M4: 78%
  EC50: 309 nM

## CCOC(=O)N1C2COCC1CC(N1CCC(C(=O)NC3(C)CCC3)CC1)C2 (single isomer, unassigned) [Example 7-1 Isomer 2, Ethyl 7-{4-[(1-methylcyclobutyl)carbamoyl]piperidin-1-yl}-3-oxa-9-azabicyclo[3.3.1]nonane-9-carboxylate]
[1]; listed as 7-1 Isomer 2
  % Emax cf. ACh, M1: 62%
[1]
  EC50: 1740 nM
[2]; listed as 7-1 Isomer 2
  % Emax cf. ACh, M4: 54%
[2]
  EC50: > 20000 nM
